Values of other authors, collected in patent publication US7576133B2, “Methods and compositions for nasal administration of modafinil” (priority 2002, dated 2009).

In the case of `NC(=O)C[S+]([O-])C(c1ccccc1)c1ccccc1` (racemic) [Modafinil, 2-[(diphenylmethyl)sulfinyl] acetamide], the “solubility in lower alcohols” value (lower alcohols) is listed as “slightly soluble” and the solubility in water (water) is listed as “practically insoluble”.
